One data set has as its system MCF-7 cells. As to the kind of experiment: MTT cell viability assay, MCF-7. It counts as cell-based, human. As to conditions: Homo sapiens, MCF7, 72 h, 72 h treatment. Here is the method: (§1) The antiproliferative activity of the synthesized compounds was evaluated by the 3-(4,5-dimethylthiazol-2-yl)-2,5-diphenyl tetrazolium bromide (MTT) cell viability assay. Two types of breast cancer cell lines—namely MCF-7, which has estrogen and progesterone receptors, and MDA-MB-231, which is triple negative—were used, in addition to a colon cancer cell line (HCT-116).
(§2) The target products 3a–o were evaluated for their antiproliferative activity using the MTT viability assay of the MCF-7, MDA-MB-231 and HCT-116 cell lines (in triplicate) on at least three independent occasions for the determination of the reported mean values.
(§3) The three human tumor cell lines MCF-7, MDA-MB-231 and HCT-116 were cultured in Dulbecco’s Modified Eagle’s Medium (DMEM) with 10% fetal bovine serum, 2 mM L-glutamine and 100 µg/mL penicillin/streptomycin. The cells were maintained at 37 °C in 5% CO2 in a humidified incubator. All of the cells were sub-cultured 3 times/week by trypsinization using TrypLE Express (1×).
(§4) In order to calculate the relative IC50 values, the antiproliferative effect of compounds 3a–o was tested in three cancer cell lines (MCF-7, MDA-MB-231, HCT-116) and normal epithelial embryonic kidney cells (HEK-293) using the MTT viability assay. The cells were seeded in 96-well plates at a density of 10 × 10^3 cells/mL, in a total volume of 200 µL per well. In total, 0.1% DMSO was used as a vehicle control. […] The culture medium was then removed, and the cells were washed with phosphate-buffered saline (PBS), and 100 µL MTT was added (for a final concentration of 5 mg/mL MTT). The cells were incubated for 4 h in darkness at 37 °C. Next, 200 µL DMSO was added to each well, and the cells were maintained at room temperature in darkness for 20 min. The absorbance was detected with a microplate reader at 570 nm. The results were expressed as a percentage of viability relative to the vehicle control (100%). The dose-response curves were plotted, and the IC50 values were obtained using Prism software (GraphPad Software, Inc., La Jolla, CA, USA). All of the experiments were repeated in three independent experiments.
For orientation: Formazan colour is commonly taken as a measure of viable cells.

The next data set has as its system HCT-116 cells. Put plainly: MTT cell viability assay, HCT-116. As to conditions: Homo sapiens, 72 h treatment. It counts as cell-based. As for the experimental part:
as §1, §2, §3, §4

The nature of data set [1]: Zebrafish embryo mortality/toxicity. In kind it is in vivo. As to conditions: wild-type, in vivo; zebrafish embryos, overnight exposure, 0.5 to 1000 µM; mean of three biological replicates ± standard deviation. As for the experimental part: (§5) The zebrafish embryos were obtained by natural pairwise breeding, and were treated essentially as described previously.
(§6) The compounds were dissolved in dimethylsulfoxide (DMSO) in order to prepare a stock concentration of 10 mM. The embryos treated with 0.10% DMSO (v/v) served as the negative controls.
(§7) The fish were kept following the national and international guidelines for the care and use of laboratory animals. The fertilized eggs were obtained by the natural pairwise breeding of adult fish. The approval of the Ethics Committee for the use and care of laboratory animals was not needed, as zebrafish larvae less than 5 days post fertilization were used.
(§8) A stock solution of 50 mM was prepared by dissolving the compounds in dimethyl sulfoxide (DMSO). At least 30 fertilized eggs were sorted and placed in 60-mm sterile glass Petri dishes. A serial dilution of the compounds was prepared by adding the required amount of the compound directly into 5 mL water, and the zebrafish embryos were then exposed to serial dilutions (0.5 to 1000 µM) of each compound overnight. The number of dead and living embryos were counted after the overnight exposure.

In data set [2] the test system is zebrafish embryos. As to the kind of experiment: Zebrafish embryo mortality/toxicity. In kind it is in vivo. As to conditions: maximum concentration tested 1 mM, versus DMSO control. As for the experimental part:
as §5, §6, §7, §8

For a further data set, the system named is MDA-MB-231 cells. As to the kind of experiment: MTT cell viability assay, MDA-MB-231. In kind it is cell-based. As to conditions: Homo sapiens, 72 h treatment. Here is the method: as §1, §2, §3, §4
The subject of data set [3] is zebrafish embryos. As to the kind of experiment: Zebrafish embryo imaging (morphology, teratogenicity). It counts as in vivo. As to conditions: 10 µM, embryos at 48 hpf. From the text:
The treated embryos had cardiac edema, craniofacial defects, tail lesions, and a delay in embryonic development. These observations are consistent with the findings in the literature.
A Zeiss Observer D1 inverted microscope using Zeiss ZEN software was used to capture the images of the live zebrafish embryos.
Figure 6 Representative images of the zebrafish embryos 48 hpf (A) control or (B) treated.

Regarding `COC(=O)CNC(=O)CNc1nc(Nc2ccc(OC)cc2)nc(N2CCOCC2)n1` [Compound 3c, Methyl (4-((4-methoxyphenyl)amino)-6-morpholino-1,3,5-triazin-2-yl) glycylglycinate], the IC50 with MCF-7 cells is 13.5 ± 1.01 µM; in the data set on HCT-116 cells it was more than 50 µM; in the data set with MDA-MB-231 cells it was more than 50 µM. Moreover, in data set [1], the 50% lethal concentration (LC50) was more than 1000 µM. Further, the “toxicity / mortality in zebrafish embryos” value (from here on “toxicity / mortality”) in the data set with zebrafish embryos [2] is reported as “did not show any toxicity”.

Consider `COC(=O)CNC(=O)CCNc1nc(Nc2ccc(Cl)cc2)nc(N2CCOCC2)n1` [Compound 3m, Methyl (3-((4-((4-chlorophenyl)amino)-6-morpholino-1,3,5-triazin-2-yl)amino)propanoyl) glycinate], for which the IC50 in the data set on MCF-7 cells is 19.7 ± 1.48 µM; in the data set on HCT-116 cells, more than 50 µM; in the data set with MDA-MB-231 cells, 26.7 ± 1.32 µM. Further, in data set [1], the LC50 amounted to 5.58 ± 0.95 µM.

In the case of `COC(=O)C(NC(=O)CCNc1nc(Nc2ccc(Cl)cc2)nc(N2CCCCC2)n1)C(C)C` (stereo not drawn) [Compound 3o, Methyl (3-((4-((4-chlorophenyl)amino)-6-(piperidin-1-yl)-1,3,5-triazin-2-yl)amino)propanoyl) valinate], the figures for the IC50 in the data set on MCF-7 cells, with HCT-116 cells and in the data set on MDA-MB-231 cells were 4.64 ± 1.58 µM, 18.9 ± 2.82 µM and 15.7 ± 2.21 µM, respectively. Further, the LC50 in data set [1] is 1.97 ± 0.27 µM.

As to `COC(=O)C(NC(=O)CNc1nc(Nc2ccc(Cl)cc2)nc(N2CCOCC2)n1)C(C)C` (stereo not drawn) [Compound 3g, Methyl (4-((4-chlorophenyl)amino)-6-morpholino-1,3,5-triazin-2-yl) glycylvalinate], the IC50 came out at 13.2 ± 0.6 µM in the data set with MCF-7 cells, 12.2 ± 1.74 µM in the data set with HCT-116 cells and 24.1 ± 2.61 µM with MDA-MB-231 cells. The same molecule showed an LC50 in data set [1] of 132.1 ± 0.86 µM.

In the case of `COC(=O)CNC(=O)CNc1nc(Nc2ccc(Cl)cc2)nc(N2CCCCC2)n1` [Compound 3i, Methyl (4-((4-chlorophenyl)amino)-6-(piperidin-1-yl)-1,3,5-triazin-2-yl) glycylglycinate], the IC50 in the data set on MCF-7 cells was 8.37 ± 0.77 µM; with HCT-116 cells, 18.5 ± 1.45 µM; with MDA-MB-231 cells, 22.3 ± 1.87 µM. The molecule further gave an LC50 in data set [1] of 6.22 ± 0.39 µM.

Consider `COC(=O)C(NC(=O)CCNc1nc(Nc2ccc(Cl)cc2)nc(N2CCOCC2)n1)C(C)C` (stereo not drawn) [Compound 3n, Methyl (3-((4-((4-chlorophenyl)amino)-6-morpholino-1,3,5-triazin-2-yl)amino)propanoyl) valinate], for which the results for the IC50 in the data set on MCF-7 cells, with HCT-116 cells and in the data set with MDA-MB-231 cells were 2.35 ± 1.06 µM, 14.4 ± 1.37 µM and 8.48 ± 1.71 µM, respectively. Further, in data set [1], the LC50 is 5.84 ± 1.09 µM.

For `COC(=O)C(C)NC(=O)CNc1nc(Nc2ccc(OC)cc2)nc(N2CCOCC2)n1` (stereo not drawn) [Compound 3f, Methyl (4-((4-methoxyphenyl)amino)-6-morpholino-1,3,5-triazin-2-yl) glycylalaninate], the IC50 is 8.02 ± 0.5 µM with MCF-7 cells, more than 50 µM with HCT-116 cells and 28.1 ± 1.07 µM with MDA-MB-231 cells. The LC50 in data set [1] is 28.4 ± 1.18 µM.

Take `COC(=O)C(C)NC(=O)CNc1nc(Nc2ccccc2)nc(N2CCOCC2)n1` (stereo not drawn) [Compound 3d, Methyl (4-morpholino-6-(phenylamino)-1,3,5-triazin-2-yl) glycylalaninate]: the IC50 is 3.57 ± 0.81 µM in the data set on MCF-7 cells, more than 50 µM in the data set with HCT-116 cells and 16.2 ± 0.63 µM with MDA-MB-231 cells. Further, the LC50 in data set [1] was more than 1000 µM. Besides, in the data set on zebrafish embryos [2], the “toxicity / mortality” value was “did not show any toxicity”.

Take `COC(=O)C(C)NC(=O)CNc1nc(Nc2ccccc2)nc(N2CCCCC2)n1` (stereo not drawn) [Compound 3k, Methyl (4-(phenylamino)-6-(piperidin-1-yl)-1,3,5-triazin-2-yl) glycylalaninate]: the IC50 with MCF-7 cells was 15.3 ± 2.49 µM; with HCT-116 cells it was more than 50 µM; in the data set on MDA-MB-231 cells it was 13.3 ± 1.12 µM. In addition, the LC50 in data set [1] worked out at 5.98 ± 0.53 µM.

Turning to `CC/C(=C(\c1ccccc1)c1ccc(OCCN(C)C)cc1)c1ccccc1` [Tamoxifen, reference compound], in the data set on zebrafish embryos [3], the “teratogenic effect in zebrafish embryos” value is on record as “severe teratogenic effect”.

In the case of `COC(=O)C(C)NC(=O)CNc1nc(Nc2ccc(Cl)cc2)nc(N2CCCCC2)n1` (stereo not drawn) [Compound 3l, Methyl (4-((4-chlorophenyl)amino)-6-(piperidin-1-yl)-1,3,5-triazin-2-yl) glycylalaninate], the IC50 in the data set on MCF-7 cells came to 1.46 ± 0.69 µM; in the data set with HCT-116 cells it was 7.06 ± 0.27 µM; in the data set with MDA-MB-231 cells, 8.31 ± 0.69 µM. The LC50 in data set [1] was determined as 4.25 ± 0.38 µM.

Regarding `COC(=O)CNC(=O)CNc1nc(Nc2ccc(Cl)cc2)nc(N2CCOCC2)n1` [Compound 3b, Methyl (4-((4-chlorophenyl)amino)-6-morpholino-1,3,5-triazin-2-yl) glycylglycinate], the values for the IC50 in the data set on MCF-7 cells, in the data set with HCT-116 cells and with MDA-MB-231 cells were 6.18 ± 0.46 µM, more than 50 µM and more than 50 µM, respectively. The LC50 in data set [1] is more than 1000 µM. Further, the “toxicity / mortality” value with zebrafish embryos [2] is reported as “did not show any toxicity”.

For the molecule `COC(=O)C(C)NC(=O)CNc1nc(Nc2ccc(Cl)cc2)nc(N2CCOCC2)n1` (stereo not drawn) [Compound 3e, Methyl (4-((4-chlorophenyl)amino)-6-morpholino-1,3,5-triazin-2-yl) glycylalaninate], the values for the IC50 with MCF-7 cells, in the data set on HCT-116 cells and in the data set with MDA-MB-231 cells were 4.35 ± 2.86 µM, more than 50 µM and 8.2 ± 1.68 µM, respectively. The same molecule came in with an LC50 in data set [1] of 2.37 ± 0.27 µM.

On to `COC(=O)CNC(=O)CNc1nc(Nc2ccc(OC)cc2)nc(N2CCCCC2)n1` [Compound 3j, Methyl (4-((4-methoxyphenyl)amino)-6-(piperidin-1-yl)-1,3,5-triazin-2-yl) glycylglycinate], for which the IC50 in the data set on MCF-7 cells is 25.3 ± 2.75 µM; in the data set with HCT-116 cells, 23.4 ± 3.43 µM; with MDA-MB-231 cells, more than 50 µM. Besides, the LC50 in data set [1] is 80.15 ± 0.59 µM.

With `COC(=O)CNC(=O)CNc1nc(Nc2ccccc2)nc(N2CCCCC2)n1` [Compound 3h, Methyl (4-(phenylamino)-6-(piperidin-1-yl)-1,3,5-triazin-2-yl) glycylglycinate], the results for the IC50 with MCF-7 cells, with HCT-116 cells and with MDA-MB-231 cells were 19.64 ± 0.08 µM, 15.2 ± 2.04 µM and more than 50 µM, respectively. The median lethal concentration (LC50) in data set [1] is 10.1 ± 0.43 µM.

What is called IC50 is the concentration that inhibits the measured activity by half. Low values mean greater potency in that assay, high ones weaker potency in that assay. By LC50 is commonly meant the concentration that kills 50% of the test population.

The values are drawn from article PMC7926980, “The Antiproliferative and Apoptotic Effect of a Novel Synthesized S-Triazine Dipeptide Series, and Toxicity Screening in Zebrafish Embryos” (Molecules, 2021).
